Assay results reported in patent US8697687B2, “Treating diseases mediated by blockade of the epithelial sodium channel with pyrazine-2-carboxamide derivatives” (Novartis AG, priority 2007, dated 2014).
Read-outs that look alike come from different tables or passages of the source.

Target: T1, epithelial sodium channel (ENaC) (Homo sapiens, UniProt P37088+P51168+P51170)
T1 construct: host or cells: primary Human Bronchial Epithelial cells (HBECs), air-liquid interface culture
T1 sequence (P37088 1-669): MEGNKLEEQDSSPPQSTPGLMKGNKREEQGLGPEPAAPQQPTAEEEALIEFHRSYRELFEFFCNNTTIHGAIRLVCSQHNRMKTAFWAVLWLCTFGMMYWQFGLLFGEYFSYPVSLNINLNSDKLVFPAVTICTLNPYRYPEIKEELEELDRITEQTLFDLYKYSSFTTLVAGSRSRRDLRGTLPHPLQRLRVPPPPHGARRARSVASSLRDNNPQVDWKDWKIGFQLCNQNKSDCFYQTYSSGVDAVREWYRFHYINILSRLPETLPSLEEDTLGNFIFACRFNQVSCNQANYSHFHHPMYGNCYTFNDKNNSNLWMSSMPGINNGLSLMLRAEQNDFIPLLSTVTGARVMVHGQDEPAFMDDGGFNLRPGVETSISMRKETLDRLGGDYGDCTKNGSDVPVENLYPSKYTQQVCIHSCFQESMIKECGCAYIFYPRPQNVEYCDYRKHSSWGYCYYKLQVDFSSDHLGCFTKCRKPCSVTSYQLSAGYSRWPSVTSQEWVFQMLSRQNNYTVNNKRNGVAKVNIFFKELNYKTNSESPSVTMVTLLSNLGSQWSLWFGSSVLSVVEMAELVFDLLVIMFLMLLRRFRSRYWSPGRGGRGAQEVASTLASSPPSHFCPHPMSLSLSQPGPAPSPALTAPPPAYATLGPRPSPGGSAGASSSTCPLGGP
T1 sequence (P51168 1-640): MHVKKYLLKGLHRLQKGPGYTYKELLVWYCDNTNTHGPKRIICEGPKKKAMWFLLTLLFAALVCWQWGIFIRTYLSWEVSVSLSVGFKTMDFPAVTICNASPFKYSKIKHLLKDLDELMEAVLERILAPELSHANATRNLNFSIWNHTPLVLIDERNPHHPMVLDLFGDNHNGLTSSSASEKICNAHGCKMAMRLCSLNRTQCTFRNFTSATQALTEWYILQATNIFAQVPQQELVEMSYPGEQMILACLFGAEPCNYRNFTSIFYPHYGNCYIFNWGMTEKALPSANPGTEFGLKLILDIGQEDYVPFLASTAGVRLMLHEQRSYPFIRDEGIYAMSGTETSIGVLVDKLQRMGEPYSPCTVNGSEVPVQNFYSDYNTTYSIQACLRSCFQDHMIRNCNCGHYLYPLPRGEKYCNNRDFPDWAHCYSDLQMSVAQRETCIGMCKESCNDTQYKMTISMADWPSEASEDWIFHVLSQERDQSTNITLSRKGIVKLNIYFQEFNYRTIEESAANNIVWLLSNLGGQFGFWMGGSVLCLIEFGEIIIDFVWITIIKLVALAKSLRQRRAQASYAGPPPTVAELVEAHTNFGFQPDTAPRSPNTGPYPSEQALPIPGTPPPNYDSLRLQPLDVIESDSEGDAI
T1 sequence (P51170 1-649): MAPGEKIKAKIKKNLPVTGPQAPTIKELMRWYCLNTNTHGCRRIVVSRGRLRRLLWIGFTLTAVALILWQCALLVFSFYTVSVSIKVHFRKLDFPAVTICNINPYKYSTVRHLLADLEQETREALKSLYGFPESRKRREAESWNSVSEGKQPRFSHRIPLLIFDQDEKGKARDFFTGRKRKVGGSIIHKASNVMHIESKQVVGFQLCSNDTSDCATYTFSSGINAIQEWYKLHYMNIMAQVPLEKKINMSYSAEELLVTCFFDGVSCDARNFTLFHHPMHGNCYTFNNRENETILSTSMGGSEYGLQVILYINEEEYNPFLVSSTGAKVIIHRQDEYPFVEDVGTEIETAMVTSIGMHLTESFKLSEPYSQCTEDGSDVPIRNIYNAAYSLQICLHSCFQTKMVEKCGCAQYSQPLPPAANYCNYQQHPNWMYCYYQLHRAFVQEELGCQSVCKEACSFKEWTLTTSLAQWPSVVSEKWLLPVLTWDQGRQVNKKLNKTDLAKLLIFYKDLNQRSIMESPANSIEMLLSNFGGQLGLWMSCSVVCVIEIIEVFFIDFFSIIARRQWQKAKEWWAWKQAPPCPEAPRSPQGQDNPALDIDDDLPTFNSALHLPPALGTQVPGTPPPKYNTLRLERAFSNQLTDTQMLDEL
Assay: Short circuit current (ISC) measurements in Human Bronchial Epithelial cells, inhibition of amiloride-sensitive ISC
Type: cell-based
Protocol: Compounds of formula (I) and their pharmaceutically acceptable salts, hereinafter referred to alternatively as “agents of the invention”, are useful as pharmaceuticals. In particular, the compounds have good ENaC blocker activity and may be tested in the following assays.
Human Bronchial Epithelial cells (HBECs) (Cambrex) were cultured under air-liquid interface conditions to provide a well differentiated mucociliary phenotype.
HBECs were cultured using a modification of the method described by Gray and colleagues (Gray et al., 1996). Cells were seeded in plastic T-162 flasks and were grown in bronchial epithelial cell growth medium (BEGM; Cambrex) supplemented with bovine pituitary extract (52 μg/mL), hydrocortisone (0.5 μg/mL), human recombinant epidermal growth factor (0.5 ng/mL), epinephrine (0.5 μg/mL), transferrin (10 μg/mL), insulin (5 μg/mL), retinoic acid (0.1 μg/mL), triiodothyronine ([…]), gentamycin (50 μg/mL) and amphotericin B (50 ng/mL). Medium was changed every 48 hours until cells were 90% confluent. Cells were then passaged and seeded (8.25×10^5 cells/insert) on polycarbonate Snapwell inserts (Costar) in differentiation media containing 50% DMEM in BEGM with the same supplements as above but without triiodothyronine and a final retinoic acid concentration of 50 nM (all-trans retinoic acid). Cells were maintained submerged for the first 7 days in culture, after which time they were exposed to an apical air interface for the remainder of the culture period. At this time, media was changed to DMEM:F12 media containing 2% v/v Ultroser G for the remainder of culture. Amphotericin B was removed from all media 3 feeds prior to use in the Using Chambers. Cells were used between days 7 and 21 after establishment of the apical-air interface. At all stages of culture, cells were maintained at 37° C. in 5% CO2 in an air incubator.
Short Circuit Current (ISC) Measurements
Snapwell inserts were mounted in Vertical Diffusion Chambers (Costar) and were bathed with continuously gassed Ringer solution (5% CO2 in O2; pH 7.4) maintained at 37° C. containing (in mM): 120 NaCl, 25 NaHCO3, 3.3 KH2PO4, 0.8 K2HPO4, 1.2 CaCl2, 1.2 MgCl2, and 10 glucose. The solution osmolarity was between 280 and 300 mOsmol/kg H2O for all physiological salt solutions used. Cells were voltage clamped to 0 mV (model EVC4000; WPI). RT was measured by applying a 1- or 2-mV pulse at 30-s intervals and calculating RT by Ohm's law. Data were recorded using a PowerLab workstation (ADInstruments).
Test compounds were prepared as a 10 mM stock solution in DMSO (95%). Serial 3-fold dilutions were freshly prepared in an appropriate vehicle (distilled H2O or Ringers solution). The initial concentration was added to the apical chamber as a 1000× concentrate in 5 μL, resulting in a final 1× concentration the 5 mL volume of the Ussing chamber. Subsequent additions of compound were added in a 3.3 μL volume of the 1000× serially diluted stock solution. At the completion of the concentration-response experiment, amiloride (10 μM) was added into the apical chamber to enable the total amiloride-sensitive current to be measured. An amiloride control IC50 was established at the start of each experiment.
Results are expressed as the mean % inhibition of the amiloride-sensitive ISC. Concentration-response curves were plotted and IC50 values generated using GraphPad Prism 3.02. Cell inserts were typically run in duplicate and the IC50 calculated on the mean % inhibition data.

[1] = inhibition of the amiloride-sensitive ISC, Human Bronchial Epithelial cells (HBECs) at air-liquid interface, compound added to apical chamber, read-out: IC50

Row | SMILES | IC50 [1] [nM] | IC50 [nM]
1 | Nc1nc(N)c(C(=O)/N=C2\NCC3(CCN(C(=O)c4cccc5[nH]ccc45)CC3)N2)nc1Cl [Example 99, 3,5-Diamino-6-chloro-pyrazine-2-carboxylic acid [8-(1H-indole-4-carbonyl)-1,3,8-triaza-spiro[4.5]dec-(2E)-ylidene]-amide] | 19 | –
2 | CC(C)(C)OC(=O)c1ccc(C(=O)N2CCC3(CC2)CN/C(=N\C(=O)c2nc(Cl)c(N)nc2N)N3)cc1 [Example 76, 4-{2-[(E)-3,5-Diamino-6-chloro-pyrazine-2-carbonylimino]-1,3,8-triaza-spiro[4.5]decane-8-carbonyl}-benzoic acid tert-butyl ester] | 12 | –
3 | Nc1nc(N)c(C(=O)/N=C2\NCC3(CCN(C(=O)c4ccc(C(=O)N5CCC6(CC5)CN/C(=N\C(=O)c5nc(Cl)c(N)nc5N)N6)cc4)CC3)N2)nc1Cl [Example 96] | – | 37
4 | CC(c1ccccc1)N1CCC2(CC1)CN/C(=N\C(=O)c1nc(Cl)c(N)nc1N)N2 (centres unmarked) [Example 246, 3,5-Diamino-6-chloro-pyrazine-2-carboxylic acid [8-(1-phenyl-ethyl)-1,3,8-triaza-spiro[4.5]dec-(2E)-ylidene]-amide] | 25 | –
5 | Nc1nc(N)c(C(=O)/N=C2\NCC3(CC4CCC(C3)N4C(=O)c3cccc4[nH]ccc34)N2)nc1Cl (centres unmarked) [Example 252, (E)-N-(8-(1H-indole-4-carbonyl)-8-azaspiro[bicyclo[3.2.1]octane-3,4′-imidazolidine]-2′-ylidene)-3,5-diamino-6-chloropyrazine-2-carboxamide] | 28 | –

Continued, in another order:

Row | IC50 [1] [nM] | SMILES | IC50 [nM]
6 | 11.5 | CCOC(=O)C1CCCN(S(=O)(=O)c2cccc(C(=O)N3CCC4(CC3)CN/C(=N\C(=O)c3nc(Cl)c(N)nc3N)N4)c2)C1 (centres unmarked) [Example 128, 1-(3-{2-[(E)-3,5-Diamino-6-chloro-pyrazine-2-carbonylimino]-1,3,8-triaza-spiro[4.5]decane-8-carbonyl}-benzenesulfonyl)-piperidine-3-carboxylic acid ethyl ester] | –
7 | 119 | Cc1oc(-c2ccccc2)nc1COc1ccc(S(=O)(=O)N2CCC3(CC2)CN/C(=N\C(=O)c2nc(Cl)c(N)nc2N)N3)cc1 [Example 238, 3,5-Diamino-6-chloro-pyrazine-2-carboxylic acid [8-[4-(5-methyl-2-phenyl-oxazol-4-ylmethoxy)-benzenesulfonyl]-1,3,8-triaza-spiro[4.5]dec-(2E)-ylidene]-amide] | –
8 | 5.5 | Cc1ccc(S(=O)(=O)N[C@@H](Cc2ccccc2)C(=O)N2CCC3(CC2)CN/C(=N\C(=O)c2nc(Cl)c(N)nc2N)N3)cc1 [Example 39, 3,5-Diamino-6-chloro-pyrazine-2-carboxylic acid [8-[(S)-3-phenyl-2-(toluene-4-sulfonylamino)-propionyl]-1,3,8-triaza-spiro[4.5]dec-(2E)-ylidene]-amide] | –
9 | 54 | Nc1nc(N)c(C(=O)/N=C2\NCC3(CCN(S(=O)(=O)Cc4ccccc4)CC3)N2)nc1Cl [Example 232, 3,5-Diamino-6-chloro-pyrazine-2-carboxylic acid [8-phenylmethanesulfonyl-1,3,8-triaza-spiro[4.5]dec-(2E)-ylidene]-amide] | –
10 | 8.5 | Nc1nc(N)c(C(=O)/N=C2\NCC3(CCN(C(=O)NCCc4cccc(OCc5ccccc5)c4)CC3)N2)nc1Cl [Example 220, 2-[(E)-3,5-Diamino-6-chloro-pyrazine-2-carbonylimino]-1,3,8-triaza-spiro[4.5]decane-8-carboxylic acid [2-(3-benzyloxy-phenyl)-ethyl]-amide] | –
11 | 5.5 | Nc1nc(N)c(C(=O)/N=C2\NCC3(CCN(C(=O)c4cn(S(=O)(=O)c5ccccc5)c5ccccc45)CC3)N2)nc1Cl [Example 40, 3,5-Diamino-6-chloro-pyrazine-2-carboxylic acid [8-(1-benzenesulfonyl-1H-indole-3-carbonyl)-1,3,8-triaza-spiro[4.5]dec-(2E)-ylidene]-amide] | –
